Reference: patent US12384751B2, “Allosteric activators of the ALPHA1A-adrenergic receptor” (The Cleveland Clinic Foundation, priority 2019, dated 2025)
Entries after “also recorded” stand apart in the source; their conditions may differ.

Assays:
[1] = system: 3×TG Alzheimer's Disease (AD) mouse model; test: Hippocampal CA1 electrophysiology (LTP, input-output, paired-pulse ratio) in 3×TG mice; type: in vivo
Experimental: AD mice were first randomized and sorted into control or treatment groups. […] 14 AD mice from each treatment group received Compound 3 in the drinking water (2.611 mg/kg/bw) to deliver a daily dose near the peak potentiation of the cAMP response in the brain at 10^−8M based upon the PAM assay and pharmacokinetics. This was achieved by adding Compound 3 to the drinking water at 32 uM, assuming the mice drink 6 ml/day, with only 10% of bioavailable drug reaching the brain. The drug was administered in the drinking water for 10 months, starting at age 2 months, then subjected to either different cognitive behavioral tests or electrophysiology at age 12 months to maximize the manifestations of AD symptoms in these mice. Mice are maintained on the drug for the duration of the studies and blinded to the operator.
At 12 months of age mice were subjected to long term potentiation (LTP) (FIG. 25).
Electrophysiology. Hippocampi are removed and slices cut 400 μm thick and immediately transferred to an oxygenated holding chamber filled with artificial cerebrospinal fluid, acclimated and transferred to recording chambers. Micropipettes are backfilled with NaCl solution and placed in the stratum radiatum. Evoked field excitatory postsynaptic potentials (fEPSPs) are measured in current clamp mode. An ISO-flex stimulator paired with a 7.5-cm bipolar tungsten-stimulating electrode is used for presynaptic stimulation of the Schaffer collateral-commissural fibers. Signals are converted from analog to digital and electronic cycling and noise filtered. Basal synaptic transmission is assessed by determining input-output curves, generated by applying a stepwise 5 μA increase in stimulation intensity. Responses are elicited every 20 seconds with duration of 100 μs per pulse. Short-term plasticity is investigated by assessing paired-pulse facilitation (PPF) by applying two pulses with interpulse intervals of 35-300 ms. A baseline response of 30 min is recorded immediately after PPF, which is followed by θ-burst stimulation (TBS) given at 80% maximal response to induce LTP. fEPSPs are recorded at 50% maximal response every 20 seconds for 90 minutes.

α1A-AR = molecular target: T1, α1A-AR (Homo sapiens, UniProt P35348); test: Total inositol phosphate assay at α1A-AR; type: cell-based; parameters: expressed in transfected cells; host or cells: Rat-1 fibroblast cells
T1 sequence (P35348 1-466): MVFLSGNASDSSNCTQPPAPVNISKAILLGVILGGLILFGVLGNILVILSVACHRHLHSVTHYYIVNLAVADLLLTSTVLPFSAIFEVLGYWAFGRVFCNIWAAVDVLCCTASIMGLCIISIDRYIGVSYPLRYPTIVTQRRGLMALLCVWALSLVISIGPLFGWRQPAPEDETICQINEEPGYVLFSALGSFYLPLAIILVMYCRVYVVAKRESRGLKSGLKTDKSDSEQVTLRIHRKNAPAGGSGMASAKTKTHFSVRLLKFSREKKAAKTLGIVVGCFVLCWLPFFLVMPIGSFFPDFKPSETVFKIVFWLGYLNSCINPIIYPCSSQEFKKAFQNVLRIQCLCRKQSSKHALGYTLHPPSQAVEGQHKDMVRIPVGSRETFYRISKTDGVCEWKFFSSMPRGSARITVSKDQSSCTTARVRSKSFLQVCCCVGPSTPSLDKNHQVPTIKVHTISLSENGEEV
Experimental: Total Inositol Phosphate assay: Cells expressing a single α1-adrenergic receptor subtypes are washed and re-plated into 6-well plates containing DMEM media at approximately 5×10^5 cells/well. Cells are allowed to rest till the next day in a CO2 incubator at 37° C. The cells are washed twice with DMEM (no serum), then 2 ml of DMEM is added to each well. 2 ul of ^3H-inositol (at 1 uCi/mL, Perkin-Elmer NET 114 005MC) and 10 mM LiCl is added to each well. The cells are incubated for 1 hour at 37° C. in a CO2 incubator. […] The cells are incubated again for 1 hour at 37° C. in a CO2 incubator. The media is aspirated and 1 mL of ice-cold 0.4M perchloric acid is added. The cells are scraped, transferred to a vial, then 1 mL 0.72M KOH/0.6M KHCO3 is added, the tube vortexed and the contents centrifuged at 2000 rpm for 10 mins. The supernatant is removed and applied to BioRad polyprep columns packed with 1 mL of AG1-X8 resin (BioRad AG1-X8 resin 100-200 mesh #140-1444) in 0.1M formic acid in a holding tray which is over a plastic catch tray. The supernatant is allowed to naturally drip through the column then washed with 8 ml of 0.1M formic acid (2 ml at a time). The columns are transferred via the holding tray to a box of 20 ml scintillation vials so that the columns drip directly into the vials. Total inositol phosphates are eluted off the column with 2 ml of 0.1M formic acid/1M ammonium formate. The columns are eluted a second time into a new scintillation vial with another 2 ml of 0.1M formic acid/1M ammonium formate. 18 ml of Ecoscint A is added to each scintillation vial and vortexed. The vials are allowed to dark adapt overnight at room temperature to reduce autofluorescence. The vials are counted in a scintillation counter on the tritium channel and the cpms from the first and second fractions eluted off the columns are added together.

CC(C)Cc1c(OCC2=NCCN2)cccc1N(C)S(C)(=O)=O [Compound 3, N-[3-(4,5-Dihydro-1H-imidazol-2-ylmethoxy)-2-isobutyl-phenyl]-N-methyl-methanesulfonamide]
paired pulse ratio (PPR) vs untreated, female ([1]; female 3×TG mice): higher | basal synaptic transmission / synaptic strength (input-output) ([1]; female 3×TG mice, CA1, approaching significance): increase synaptic strength; also recorded: increased | long term potentiation (LTP) vs untreated ([1]; female AD mice, 12 months of age, CA1): statistically significant (p<0.01) | paired pulse ratio (PPR) vs untreated, male ([1]; male 3×TG mice): increased PPR | effect on epinephrine-mediated inositol phosphate response at the α1A-AR (α1A-AR): no effect | effect on norepinephrine-mediated inositol phosphate response at the α1A-AR (α1A-AR): does not have any effect; also recorded: no effect | stimulation of inositol phosphate / agonist activity by the compound by itself (α1A-AR; compound alone): cannot stimulate
